Test results taken from patent publication US9409866B2, “Pyridine-2-amides useful as CB2 agonists” (Hoffmann-La Roche Inc., priority 2012, dated 2016).
Like-named read-outs stand apart in the source and are kept apart here.

How the values were obtained:
[1] = target: human CB1 receptors (Homo sapiens (Human), UniProt P21554); assay: functional cAMP assay, CHO cells expressing human CB1; type: cell-based
Procedure, shortened: (§1)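 CHO cells with human CB1 or CB2 were switched to Krebs Ringer bicarbonate buffer with 1 mM IBMX for 30 min at 30 °C, then given compound for 30 min at 30 °C. cAMP was measured by time-resolved FRET against a cAMP standard curve, and EC50 values were calculated.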

[2] = target: human CB2 receptors (Homo sapiens (Human), UniProt P34972); assay: functional cAMP assay, CHO cells expressing human CB2; type: cell-based
Procedure, shortened: as §1

[3] = Human CB1 EC50 (uM), functional cAMP assay, CHO cells expressing human CB1
[4] = functional cAMP assay, CHO cells expressing human CB1; read-out: Human CB1 EC50

human CB1 receptors, sequence (P21554 whole entry): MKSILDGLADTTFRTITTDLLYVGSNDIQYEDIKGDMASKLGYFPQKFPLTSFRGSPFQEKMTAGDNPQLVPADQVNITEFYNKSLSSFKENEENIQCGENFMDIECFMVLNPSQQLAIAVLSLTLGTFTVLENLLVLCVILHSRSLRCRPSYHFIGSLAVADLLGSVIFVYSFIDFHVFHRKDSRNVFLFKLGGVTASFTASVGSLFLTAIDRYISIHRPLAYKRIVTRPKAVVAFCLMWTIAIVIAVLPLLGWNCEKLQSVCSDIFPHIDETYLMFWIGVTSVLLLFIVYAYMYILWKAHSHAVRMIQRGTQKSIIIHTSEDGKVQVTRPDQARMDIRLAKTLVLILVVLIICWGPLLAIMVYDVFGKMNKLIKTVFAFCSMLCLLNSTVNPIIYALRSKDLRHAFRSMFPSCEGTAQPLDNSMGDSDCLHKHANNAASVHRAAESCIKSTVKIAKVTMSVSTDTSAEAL
human CB2 receptors, sequence (P34972 whole entry): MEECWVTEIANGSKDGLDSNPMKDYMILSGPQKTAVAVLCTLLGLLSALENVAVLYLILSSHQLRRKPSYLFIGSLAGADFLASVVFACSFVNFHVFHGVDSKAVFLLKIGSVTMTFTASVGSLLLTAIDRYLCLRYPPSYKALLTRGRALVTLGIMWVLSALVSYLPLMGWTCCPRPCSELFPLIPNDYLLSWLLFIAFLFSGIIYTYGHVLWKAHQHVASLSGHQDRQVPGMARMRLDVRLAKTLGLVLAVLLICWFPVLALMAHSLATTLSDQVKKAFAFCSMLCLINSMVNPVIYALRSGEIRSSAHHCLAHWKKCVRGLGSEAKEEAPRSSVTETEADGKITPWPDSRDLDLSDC

Row | SMILES | EC50 [1, 3] [µM] | EC50 ([2]; Human CB2 EC50 (uM)) [µM] | EC50 [1, 4] [µM] | EC50 ([2]; read-out: Human CB2 EC50) [µM] | EC50 ([1]; read-out: Human CB1 EC50; functional cAMP assay, CHO cells expressing human CB1) [µM]
1 | Cc1nc([C@](C)(NC(=O)c2cc(OCC(F)(F)F)c(Cl)cn2)C2CC2)no1 (single isomer, unassigned; enantiomer a) [Example 74, 5-Chloro-4-(2,2,2-trifluoro-ethoxy)-pyridine-2-carboxylic acid [1-cyclopropyl-1-(5-methyl-[1,2,4]oxadiazol-3-yl)-ethyl]-amide (enantiomer A)] | > 10 | 0.0133 | – | – | –
2 | NC(=O)[C@@H]1CC(F)(F)CN1C(=O)c1cc(OCC(F)(F)F)c(C2CC2)cn1 [Example 115, (2S)-1-[5-cyclopropyl-4-(2,2,2-trifluoroethoxy)pyridine-2-carbonyl]-4,4-difluoropyrrolidine-2-carboxamide] | – | – | > 10 | 1.26 | –
3 | O=C(NC1(CO)CCCCC1)c1cc(OCC(F)(F)F)c(C2CC2)cn1 [Example 55, 5-Cyclopropyl-4-(2,2,2-trifluoro-ethoxy)-pyridine-2-carboxylic acid (1-hydroxymethyl-cyclohexyl)-amide] | – | – | > 10 | 0.0157 | –
4 | CC(C)[C@](C)(CO)NC(=O)c1cc(Cc2ccc(F)cc2)c(Cl)cn1 [Example 15, 5-Chloro-4-(4-fluoro-benzyl)-pyridine-2-carboxylic acid ((R)-1-hydroxymethyl-1,2-dimethyl-propyl)-amide] | – | – | > 10 | 0.0058 | –
5 | CC(C)CC(C)(CO)NC(=O)c1cc(OCC2CC2)c(Cl)cn1 (centres unmarked) [Example 25, 5-Chloro-4-cyclopropylmethoxy-pyridine-2-carboxylic acid (1-hydroxymethyl-1,3-dimethyl-butyl)-amide] | – | – | > 10 | 0.0119 | –
6 | Cc1nc(C(C)(NC(=O)c2cc(OCC(F)(F)F)c(C3CC3)cn2)C(N)=O)no1 (centres unmarked) [Example 180, N-[1-amino-2-(5-methyl-1,2,4-oxadiazol-3-yl)-1-oxopropan-2-yl]-5-cyclopropyl-4-(2,2,2-trifluoroethoxy)pyridine-2-carboxamide] | – | – | > 10 | 0.149 | –
7 | Cc1nc(C(C)(CS(C)(=O)=O)NC(=O)c2cc(OCC(F)(F)F)c(C3CCC3)cn2)no1 (single isomer, unassigned) [Example 124, 5-cyclobutyl-N-[1-methyl-1-(5-methyl-1,2,4-oxadiazol-3-yl)-2-methylsulfonyl-ethyl]-4-(2,2,2-trifluoroethoxy)pyridine-2-carboxamide] | > 10 | 0.0159 | – | – | –
8 | Cn1nnnc1C(C)(CC1CC1)NC(=O)c1cc(OCC(F)(F)F)c(C2CC2)cn1 (centres unmarked) [Example 151, 5-cyclopropyl-N-[1-cyclopropyl-2-(1-methyltetrazol-5-yl)propan-2-yl]-4-(2,2,2-trifluoroethoxy)pyridine-2-carboxamide] | – | – | > 10 | 0.0198 | –
9 | C[C@H](Oc1cc(C(=O)NC(C)(CC(N)=O)C2CC2)ncc1C1CC1)C(F)(F)F (stereo partly drawn) [Example 258, N-(4-amino-2-cyclopropyl-4-oxobutan-2-yl)-5-cyclopropyl-4-[(2S)-1,1,1-trifluoropropan-2-yl]oxypyridine-2-carboxamide] | – | – | > 10 | 0.013 | –
10 | Cc1nc([C@](C)(CC(C)(C)C)NC(=O)c2cc(OCC(F)(F)F)c(C3CC3)cn2)no1 (single isomer, unassigned) [Example 105, 5-Cyclopropyl-4-(2,2,2-trifluoro-ethoxy)-pyridine-2-carboxylic acid [1,3,3-trimethyl-1-(5-methyl-[1,2,4]oxadiazol-3-yl)-butyl]-amide] | 0.33 | 0.0023 | – | – | –
11 | CNC(=O)CC(C)(NC(=O)c1cc(O[C@@H](C)C(F)(F)F)c(C2CC2)cn1)C1CC1 (stereo partly drawn) [Example 249, 5-cyclopropyl-N-[2-cyclopropyl-4-(methylamino)-4-oxobutan-2-yl]-4-[(2S)-1,1,1-trifluoropropan-2-yl]oxypyridine-2-carboxamide] | – | – | > 10 | 0.001 | –
12 | CN(C)C(=O)CC1(NC(=O)c2cc(OCC(F)(F)F)c(Cl)cn2)COC1 [Example 85, 5-Chloro-4-(2,2,2-trifluoro-ethoxy)-pyridine-2-carboxylic acid (3-dimethylcarbamoylmethyl-oxetan-3-yl)-amide] | – | – | > 10 | 0.362 | –
13 | C[C@H](Oc1cc(C(=O)NC(C)(CC(N)=O)C2CC2)ncc1C1(F)COC1)C(F)(F)F (single isomer, unassigned) [Example 278] | – | 0.0929 | – | – | > 10
14 | Cc1nc(C(C)(NC(=O)c2cc(OCC3CC3)c(C3CC3)cn2)C2CC2)no1 (centres unmarked) [Example 44, 5-Cyclopropyl-4-cyclopropylmethoxy-pyridine-2-carboxylic acid [1-cyclopropyl-1-(5-methyl-[1,2,4]oxadiazol-3-yl)-ethyl]-amide] | – | – | > 10 | 0.0007 | –
15 | Cc1nc(C(C)(CS(C)(=O)=O)NC(=O)c2cc(O[C@@H](C)C(F)(F)F)c(C3CCC3)cn2)no1 (stereo partly drawn) [Example 119, 5-cyclobutyl-N-[2-(5-methyl-1,2,4-oxadiazol-3-yl)-1-methylsulfonylpropan-2-yl]-4-[(2S)-1,1,1-trifluoropropan-2-yl]oxypyridine-2-carboxamide] | – | – | > 10 | 0.0091 | –
16 | CC(CF)Oc1cc(C(=O)NC(C)(CC(N)=O)C2CC2)ncc1C1CC1 (single isomer, unassigned) [Example 301, N-(4-amino-2-cyclopropyl-4-oxobutan-2-yl)-5-cyclopropyl-4-(1-fluoropropan-2-yloxy)picolinamide] | > 10 | 0.0304 | – | – | –
17 | CCC(C)(CO)NC(=O)c1cc(OCC2CC2)c(Cl)cn1 (centres unmarked) [Example 26, 5-Chloro-4-cyclopropylmethoxy-pyridine-2-carboxylic acid (1-hydroxymethyl-1-methyl-propyl)-amide] | – | – | > 10 | 0.0476 | –
18 | CC(CC(N)=O)(NC(=O)c1cc(OCC(F)(F)F)c(C2CC2)cn1)C1CC1 (single isomer, unassigned) [Example 243, N-[4-amino-2-cyclopropyl-4-oxobutan-2-yl]-5-cyclopropyl-4-(2,2,2-trifluoroethoxy)pyridine-2-carboxamide] | > 10 | 0.0005 | – | – | –
19 | CNC(=O)C(C)(NC(=O)c1cc(O[C@@H](C)C(F)(F)F)c(C2(F)COC2)cn1)c1noc(C)n1 (stereo partly drawn) [Example 183, 5-(3-fluorooxetan-3-yl)-N-[1-(methylamino)-2-(5-methyl-1,2,4-oxadiazol-3-yl)-1-oxopropan-2-yl]-4-[(2S)-1,1,1-trifluoropropan-2-yl]oxypyridine-2-carboxamide] | – | – | > 10 | 0.917 | –
20 | CNC(=O)[C@@H](NC(=O)c1cc(OC2COC2)c(Cl)cn1)C(C)(C)C [Example 23, 5-Chloro-4-(oxetan-3-yloxy)-pyridine-2-carboxylic acid ((S)-2,2-dimethyl-1-methylcarbamoyl-propyl)-amide] | – | – | > 10 | 0.205 | –
21 | Cc1nc([C@@](C)(CC(C)(C)C)NC(=O)c2cc(OCC(F)(F)F)c(C3CC3)cn2)no1 (single isomer, unassigned) [Example 104, 5-Cyclopropyl-4-(2,2,2-trifluoro-ethoxy)-pyridine-2-carboxylic acid [1,3,3-trimethyl-1-(5-methyl-[1,2,4]oxadiazol-3-yl)-butyl]-amide] | > 10 | 0.0298 | – | – | –
22 | CC(C)(CO)NC(=O)c1cc(-c2cccc(Cl)c2)c(Cl)cn1 [Example 2, 5-Chloro-4-(3-chlorophenyl)-pyridine-2-carboxylic acid (2-hydroxy-1,1-dimethyl-ethyl)-amide] | – | – | > 10 | 0.0963 | –
